Results from ChEMBL document CHEMBL1201862, “PubChem BioAssay data set” (2004).
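1) Cells in 96-well plates. 2) Compound, 48 h, 5 concentrations. 3) Linear interpolation between surrounding doses. 4) Unreached endpoint = highest concentration. GI50 marks 50% less growth.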 Calls of active or inactive are those of the source. No stated cut-off is given here; in the data, active = GI50 up to about 1.1 µM and inactive = higher.

Legend:
Test in all cases: DTP human tumour cell line panel, 48 h
NCI-H522 = tested on: NCI-H522
OVCAR-5 = tested on: OVCAR-5
SW-620 = tested on: SW-620
BT-549 = tested on: BT-549
NCI-H226 = tested on: NCI-H226
HCT-116 = tested on: HCT-116
SNB-19 = tested on: SNB-19
SF-539 = tested on: SF-539
RXF 393 = tested on: RXF 393
UACC-62 = tested on: UACC-62
MDA-MB-231 = tested on: MDA-MB-231
NCI-H460 = tested on: NCI-H460
Malme-3M = tested on: Malme-3M
OVCAR-8 = tested on: OVCAR-8
MDA-N = tested on: MDA-N
SNB-75 = tested on: SNB-75
SK-MEL-5 = tested on: SK-MEL-5
CCRF-CEM = tested on: CCRF-CEM
MOLT-4 = tested on: MOLT-4
A549 = tested on: A549
MCF7 = tested on: MCF7
ACHN = tested on: ACHN
EKVX = tested on: EKVX
786-0 = tested on: 786-0
NCI-H23 = tested on: NCI-H23
SF-268 = tested on: SF-268
RPMI-8226 = tested on: RPMI-8226
HT-29 = tested on: HT-29
DU-145 = tested on: DU-145
HCC 2998 = tested on: HCC 2998
SK-MEL-2 = tested on: SK-MEL-2
SK-MEL-28 = tested on: SK-MEL-28
Hs-578T = tested on: Hs-578T
SF-295 = tested on: SF-295
OVCAR-3 = tested on: OVCAR-3
SN12C = tested on: SN12C
HOP-62 = tested on: HOP-62
A498 = tested on: A498
LOX IMVI = tested on: LOX IMVI
HL-60 = tested on: HL-60
SK-OV-3 = tested on: SK-OV-3
OVCAR-4 = tested on: OVCAR-4
U-251 = tested on: U-251
SR = tested on: SR
TK-10 = tested on: TK-10
HCT-15 = tested on: HCT-15
T47D = tested on: T47D
UACC-257 = tested on: UACC-257
CAKI-1 = tested on: CAKI-1
MDA-MB-435 = tested on: MDA-MB-435
IGROV-1 = tested on: IGROV-1
COLO 205 = tested on: COLO 205
PC-3 = tested on: PC-3
KM12 = tested on: KM12
HOP-92 = tested on: HOP-92
M14 = tested on: M14
K562 = tested on: K562
NCI/ADR-RES = tested on: NCI/ADR-RES
UO-31 = tested on: UO-31

O=C1OC(c2ccc([N+](=O)[O-])cc2)=N/C1=C\c1ccc(O)cc1
GI50 (NCI-H522): > 100 µM (inactive) | GI50 (OVCAR-5): > 100 µM (inactive) | GI50 (SW-620): > 100 µM (inactive) | GI50 (BT-549): > 100 µM (inactive) | GI50 (NCI-H226): > 100 µM (inactive) | GI50 (HCT-116): > 100 µM (inactive) | GI50 (SNB-19): > 100 µM (inactive) | GI50 (SF-539): > 100 µM (inactive) | GI50 (RXF 393): > 100 µM (inactive) | GI50 (UACC-62): > 100 µM (inactive) | GI50 (MDA-MB-231): > 100 µM (inactive) | GI50 (NCI-H460): > 100 µM (inactive) | GI50 (Malme-3M): > 100 µM (inactive) | GI50 (OVCAR-8): > 100 µM (inactive) | GI50 (MDA-N): > 100 µM (inactive) | GI50 (SNB-75): > 100 µM (inactive) | GI50 (SK-MEL-5): > 100 µM (inactive) | GI50 (CCRF-CEM): > 100 µM (inactive) | GI50 (MOLT-4): > 100 µM (inactive) | GI50 (A549): > 100 µM (inactive) | GI50 (MCF7): > 100 µM (inactive) | GI50 (ACHN): > 100 µM (inactive) | GI50 (EKVX): > 100 µM (inactive) | GI50 (786-0): > 100 µM (inactive) | GI50 (NCI-H23): > 100 µM (inactive) | GI50 (SF-268): > 100 µM (inactive) | GI50 (RPMI-8226): > 100 µM (inactive) | GI50 (HT-29): > 100 µM (inactive) | GI50 (DU-145): > 100 µM (inactive) | GI50 (HCC 2998): > 100 µM (inactive) | GI50 (SK-MEL-2): > 100 µM (inactive) | GI50 (SK-MEL-28): > 100 µM (inactive) | GI50 (Hs-578T): > 100 µM (inactive) | GI50 (SF-295): > 100 µM (inactive) | GI50 (OVCAR-3): > 100 µM (inactive) | GI50 (SN12C): > 100 µM (inactive) | GI50 (HOP-62): > 100 µM (inactive) | GI50 (A498): > 100 µM (inactive) | GI50 (LOX IMVI): > 100 µM (inactive) | GI50 (HL-60): > 100 µM (inactive) | GI50 (SK-OV-3): > 100 µM (inactive) | GI50 (OVCAR-4): > 100 µM (inactive) | GI50 (U-251): > 100 µM (inactive) | GI50 (SR): > 100 µM (inactive) | GI50 (TK-10): > 100 µM (inactive) | GI50 (HCT-15): > 100 µM | GI50 (T47D): > 100 µM (inactive) | GI50 (UACC-257): > 100 µM (inactive) | GI50 (CAKI-1): > 100 µM (inactive) | GI50 (MDA-MB-435): > 100 µM (inactive) | GI50 (IGROV-1): > 100 µM (inactive) | GI50 (COLO 205): > 100 µM (inactive) | GI50 (PC-3): > 100 µM (inactive) | GI50 (KM12): > 100 µM (inactive) | GI50 (HOP-92): > 100 µM (inactive) | GI50 (M14): > 100 µM (inactive) | GI50 (K562): > 100 µM (inactive)

CCN(CC)CCNc1n[n+]([O-])c2cc([N+](=O)[O-])ccc2[n+]1[O-]
GI50 (OVCAR-5): 1.92 µM (inactive) | GI50 (BT-549): 2.37 µM (inactive) | GI50 (NCI-H226): 1.7 µM (inactive) | GI50 (HCT-116): 0.483 µM (active) | GI50 (SNB-19): 1.4 µM (inactive) | GI50 (RXF 393): 1.52 µM (inactive) | GI50 (OVCAR-8): 0.538 µM (active) | GI50 (NCI/ADR-RES): 1.27 µM (inactive) | GI50 (MDA-N): 0.863 µM (active) | GI50 (SK-MEL-5): 0.714 µM (active) | GI50 (A549): 0.752 µM (active) | GI50 (EKVX): 1.98 µM (inactive) | GI50 (SF-268): 1.11 µM (active) | GI50 (HT-29): 0.374 µM (active) | GI50 (SK-MEL-28): 6.32 µM (inactive) | GI50 (Hs-578T): 2.59 µM (inactive) | GI50 (OVCAR-3): 0.893 µM (active) | GI50 (HOP-62): 0.661 µM (active) | GI50 (A498): 1.79 µM (inactive) | GI50 (LOX IMVI): 0.601 µM (active) | GI50 (SK-OV-3): 1.05 µM (active) | GI50 (OVCAR-4): 1.31 µM (inactive) | GI50 (U-251): 1.08 µM (active) | GI50 (UO-31): 2.94 µM (inactive) | GI50 (CAKI-1): 0.337 µM (active) | GI50 (MDA-MB-435): 1.38 µM (inactive) | GI50 (IGROV-1): 0.191 µM (active) | GI50 (COLO 205): 0.605 µM (active) | GI50 (KM12): 0.948 µM (active) | GI50 (M14): 0.587 µM (active)

O=C(NC(Cc1c[nH]c2ccccc12)C(=O)O)/C(=C/c1ccccc1O)NC(=O)c1ccccc1 (configuration not stated)
GI50 (NCI-H522): 20.4 µM (inactive) | GI50 (OVCAR-5): > 100 µM (inactive) | GI50 (SW-620): > 100 µM (inactive) | GI50 (BT-549): 18.4 µM (inactive) | GI50 (NCI-H226): 16.3 µM (inactive) | GI50 (HCT-116): 42.6 µM (inactive) | GI50 (SNB-19): 22.7 µM (inactive) | GI50 (SF-539): 16.1 µM (inactive) | GI50 (RXF 393): 28.5 µM (inactive) | GI50 (UACC-62): 24.2 µM (inactive) | GI50 (MDA-MB-231): 21 µM (inactive) | GI50 (NCI-H460): 33.2 µM (inactive) | GI50 (Malme-3M): 22.4 µM (inactive) | GI50 (OVCAR-8): 15.5 µM (inactive) | GI50 (NCI/ADR-RES): 13.9 µM (inactive) | GI50 (MDA-N): 7.05 µM (inactive) | GI50 (SNB-75): 17.4 µM (inactive) | GI50 (SK-MEL-5): > 100 µM (inactive) | GI50 (CCRF-CEM): > 100 µM (inactive) | GI50 (MOLT-4): > 100 µM (inactive) | GI50 (A549): 60.5 µM (inactive) | GI50 (MCF7): 3.08 µM (inactive) | GI50 (ACHN): 19.2 µM (inactive) | GI50 (EKVX): 29.2 µM (inactive) | GI50 (786-0): 18.6 µM (inactive) | GI50 (NCI-H23): 51.6 µM (inactive) | GI50 (SF-268): 17.6 µM (inactive) | GI50 (RPMI-8226): > 100 µM (inactive) | GI50 (HT-29): > 100 µM (inactive) | GI50 (DU-145): 43.4 µM (inactive) | GI50 (HCC 2998): 42.2 µM (inactive) | GI50 (SK-MEL-28): > 100 µM (inactive) | GI50 (Hs-578T): 24.6 µM (inactive) | GI50 (SF-295): 19.8 µM (inactive) | GI50 (SN12C): 24.7 µM (inactive) | GI50 (A498): > 100 µM (inactive) | GI50 (LOX IMVI): 33 µM (inactive) | GI50 (HL-60): > 100 µM (inactive) | GI50 (SK-OV-3): 22.3 µM (inactive) | GI50 (OVCAR-4): 57.5 µM (inactive) | GI50 (U-251): 39.1 µM (inactive) | GI50 (SR): > 100 µM (inactive) | GI50 (UO-31): 6.78 µM (inactive) | GI50 (TK-10): 37.7 µM (inactive) | GI50 (HCT-15): 25.6 µM | GI50 (T47D): 12.1 µM (inactive) | GI50 (UACC-257): > 100 µM (inactive) | GI50 (CAKI-1): 18.8 µM (inactive) | GI50 (MDA-MB-435): 18.9 µM (inactive) | GI50 (IGROV-1): 19.2 µM (inactive) | GI50 (COLO 205): > 100 µM (inactive) | GI50 (KM12): 7.16 µM (inactive) | GI50 (HOP-92): 14.5 µM (inactive) | GI50 (M14): > 100 µM (inactive) | GI50 (K562): > 100 µM (inactive)
